Here are results for one molecule from US20140163075A1, “MODULATION OF THE UBIQUITIN-PROTEASOME SYSTEM (UPS)” (NETHERLAND CANCER INSTITUTE, priority 2011, published 2014).

Test [1] concerns proteasome. Particulars: literature overview; cited from earlier work.
Test [2] deals with proteasome. Particulars: literature overview; cited from earlier work. The source holds these as a separate data set.
Test [3] deals with 20S and/or 26S proteasome. In words: FACS-based proteasome activity assay with Me4BodipyFL-Ahx3Leu3VS activity probe in MelJuSo wild type cells. It is filed as cell-based, human. Conditions: 5 μM, 16 hours, triplicate. As to the method: MelJuSo cells are washed, trypsinized and resuspended in medium containing FBS and antibiotics. After counting the concentration is adjusted to 200,000 cells per mL. Using the Wellmate microplate dispenser fitted with small bore nozzle tubing, 50 μL of cell suspension is transferred to each well of a black 384 wells plate (10,000 cells/well).
A brief spin down will prevent any liquid from being lost when the plate cover is removed. Using a Hamilton liquid handling workstation the compounds are diluted to appropriate concentrations. To “wash” the cells prior to exposure 30 μL of medium is removed from each well and is replaced with fresh medium. Then the compounds are added to the medium of the cells (final concentration 5 μM).
Using the Wellmate microplate dispenser fitted with small bore nozzle tubing, […] of probe suspension is transferred to each well resulting in a final probe concentration of 200 nM. Plates are left to incubate for two hours. Then the medium is removed and the cells are washed one time with PBS. The PBS is removed and 10 μL of trypsin is added to each well. The plates are left on a shaker for 2 minutes, placed in an incubator for 5 minutes and put on a shaker again for 2 minutes. 40 μL of PBS containing 2% FBS is added per well and the plates are put on the shaker for 2 minutes. Finally, 20 μL of PBS containing 4% formaldehyde is added and the plates are left to shake for at least 15 minutes. Plates are left on a shaker at 4° C. until they can be measured.
The FITS unit is installed on the FACS and everything is turned on. To remove air from the system and ascertain that everything works fine the system is primed twice. One by one the plates are brought down and measured. In between plates a “daily clean” cycle is performed to prevent the system from becoming clogged. After the last plate the system should be cleaned again.
Analysis is always performed per plate. Throughout the analysis the following parameters are considered: • Forward Scatter (FSC): size of the cell • Side Scatter (SSC): granularity of the cell • Number of events (#) • Probe signal (FL-1): proteasome activity • FL-2 and FL-3: signal in other channels
All DMSO samples are checked and aberrant wells (low # events, high SSC, no signal) are excluded. The average of the FL-1 from all remaining DMSO samples is used to calculate the “ratio vs. DMSO” and the FL-1 log 2 ratio of the experimental samples. This will result in DMSO samples having a FL-1 log 2 value around zero. Compounds are considered “activators” or “hits” if the FL-1 log 2 ratio is >1, and inhibitors if the FL-1 log 2 ratio is […].
Cells were washed once with phosphate buffered saline (PBS, 1 GIBCO tablet in 500 mL MilliQ). Fresh medium containing the compound at the indicated concentration was added. After the incubation time 200 nM of Me4BodipyFL-Ahx3Leu3VS activity probe was added to the cells and after two hours of incubation cells were harvested for subsequent analysis by FACS or post-lysis fluorescence detection.
Celts were washed once with PBS, trypsin was added and the plate was placed at 37° C. for 5 minutes to allow the cells to detach. When detached the cells were resuspended in PBS supplemented with 2% FBS. Cells were fixed with formaldehyde (final concentration 1% in PBS). All samples were measured using a FACSCalibur flow cytometer (BD Biosciences). […] The complete workflow used for the compound screens is described above in more detail.
The compound libraries mentioned above are screened using a FACS-based activity assay. The proteasome activity probe Me4BodipyFL-Ahx3Leu3VS activity probe is used to fluorescently label the proteasome. This probe binds irreversibly to the catalytic domains of the 20S CP. When proteasome activity is increased, increased probe binding results in an increase in fluorescent signal compared to untreated cells.

On to `Cc1cc(C(=O)CN2CCCC2)c(C)n1-c1ccc(F)cc1` [USP14 inhibitor, IU1], for which the “Results: purified proteasome/lysate” value in the test with proteasome [1] was “Increases all 3 proteasome”. Moreover, in the test on proteasome [2], the “Results: live cells” value is “Increases all 3”. The “FL-1 log 2 score compared to the compounds identified in the screen” value in test [3] is “scores relatively low”.
